Numbers after ± are expanded uncertainties.
Test: mn = molality of the nth substance listed, in mol/kg
Conditions: 101 kPa, Liquid, Alternating current cell with electrodes

CCCCCCCC[N+](C)(C)CCCCCCCCCCCC[N+](C)(C)CCCCCCCC.[Br-].[Br-] + O
Conditions | electrical conductivity [S/m]
288.15 K, m1 = 0.00524 | 0.0948 ± 0.00046
288.15 K, m1 = 0.00825 | 0.1292 ± 0.00057
288.15 K, m1 = 0.01026 | 0.1522 ± 0.00065
288.15 K, m1 = 0.01325 | 0.1863 ± 0.00078
288.15 K, m1 = 0.01696 | 0.2286 ± 0.00094
288.15 K, m1 = 0.01986 | 0.2617 ± 0.0011
288.15 K, m1 = 0.02257 | 0.2928 ± 0.0012
288.15 K, m1 = 0.02469 | 0.3169 ± 0.0013
288.15 K, m1 = 0.0276 | 0.3349 ± 0.0014
288.15 K, m1 = 0.03026 | 0.3455 ± 0.0014
288.15 K, m1 = 0.03258 | 0.3547 ± 0.0014
288.15 K, m1 = 0.03485 | 0.3637 ± 0.0015
288.15 K, m1 = 0.03697 | 0.3722 ± 0.0015
288.15 K, m1 = 0.03965 | 0.3828 ± 0.0015
288.15 K, m1 = 0.0414 | 0.3897 ± 0.0016
288.15 K, m1 = 0.04287 | 0.3956 ± 0.0016
288.15 K, m1 = 0.04499 | 0.404 ± 0.0016
288.15 K, m1 = 0.04668 | 0.4107 ± 0.0016
288.15 K, m1 = 0.04802 | 0.416 ± 0.0017
288.15 K, m1 = 0.04996 | 0.4237 ± 0.0017
288.15 K, m1 = 0.05094 | 0.4276 ± 0.0017
288.15 K, m1 = 0.05281 | 0.435 ± 0.0017
288.15 K, m1 = 0.0543 | 0.441 ± 0.0018
288.15 K, m1 = 0.0552 | 0.4446 ± 0.0018
288.15 K, m1 = 0.05651 | 0.4497 ± 0.0018
288.15 K, m1 = 0.05808 | 0.456 ± 0.0018
288.15 K, m1 = 0.05949 | 0.4616 ± 0.0019
288.15 K, m1 = 0.06045 | 0.4654 ± 0.0019
288.15 K, m1 = 0.06136 | 0.469 ± 0.0019
288.15 K, m1 = 0.06193 | 0.4713 ± 0.0019
293.15 K, m1 = 0.00394 | 0.05156 ± 0.00033
293.15 K, m1 = 0.00765 | 0.1034 ± 0.0005
293.15 K, m1 = 0.01114 | 0.1525 ± 0.00066
293.15 K, m1 = 0.01444 | 0.1943 ± 0.00081
293.15 K, m1 = 0.01756 | 0.229 ± 0.00094
293.15 K, m1 = 0.02051 | 0.2582 ± 0.001
293.15 K, m1 = 0.02331 | 0.2806 ± 0.0011
293.15 K, m1 = 0.02597 | 0.3012 ± 0.0012
293.15 K, m1 = 0.0285 | 0.316 ± 0.0013
293.15 K, m1 = 0.03091 | 0.3286 ± 0.0013
293.15 K, m1 = 0.0332 | 0.3423 ± 0.0014
293.15 K, m1 = 0.03539 | 0.3542 ± 0.0014
293.15 K, m1 = 0.03749 | 0.3651 ± 0.0015
293.15 K, m1 = 0.03949 | 0.3739 ± 0.0015
293.15 K, m1 = 0.0414 | 0.3836 ± 0.0015
293.15 K, m1 = 0.04323 | 0.3916 ± 0.0016
293.15 K, m1 = 0.04499 | 0.4007 ± 0.0016
293.15 K, m1 = 0.04668 | 0.4081 ± 0.0016
293.15 K, m1 = 0.0483 | 0.4165 ± 0.0017
293.15 K, m1 = 0.04986 | 0.4238 ± 0.0017
293.15 K, m1 = 0.05136 | 0.4302 ± 0.0017
293.15 K, m1 = 0.05281 | 0.436 ± 0.0018
293.15 K, m1 = 0.0542 | 0.4419 ± 0.0018
293.15 K, m1 = 0.05554 | 0.4484 ± 0.0018
293.15 K, m1 = 0.05683 | 0.4533 ± 0.0018
293.15 K, m1 = 0.05808 | 0.4587 ± 0.0018
293.15 K, m1 = 0.05929 | 0.4642 ± 0.0019
293.15 K, m1 = 0.06045 | 0.4689 ± 0.0019
293.15 K, m1 = 0.06158 | 0.4733 ± 0.0019
293.15 K, m1 = 0.06267 | 0.4778 ± 0.0019
298.15 K, m1 = 0.00394 | 0.04358 ± 0.00038
298.15 K, m1 = 0.00765 | 0.1152 ± 0.00058
298.15 K, m1 = 0.01115 | 0.1707 ± 0.00075
298.15 K, m1 = 0.01445 | 0.2175 ± 0.00092
298.15 K, m1 = 0.01541 | 0.2303 ± 0.00096
298.15 K, m1 = 0.01634 | 0.2425 ± 0.001
298.15 K, m1 = 0.01727 | 0.2535 ± 0.001
298.15 K, m1 = 0.01818 | 0.2637 ± 0.0011
298.15 K, m1 = 0.01907 | 0.2737 ± 0.0011
298.15 K, m1 = 0.01995 | 0.2808 ± 0.0011
298.15 K, m1 = 0.02081 | 0.2903 ± 0.0012
298.15 K, m1 = 0.02167 | 0.2984 ± 0.0012
298.15 K, m1 = 0.0225 | 0.306 ± 0.0013
298.15 K, m1 = 0.02333 | 0.3152 ± 0.0013
298.15 K, m1 = 0.02414 | 0.3211 ± 0.0013
298.15 K, m1 = 0.02494 | 0.3283 ± 0.0013
298.15 K, m1 = 0.02573 | 0.3337 ± 0.0014
298.15 K, m1 = 0.02651 | 0.3387 ± 0.0014
298.15 K, m1 = 0.02727 | 0.3443 ± 0.0014
298.15 K, m1 = 0.02802 | 0.349 ± 0.0014
298.15 K, m1 = 0.02877 | 0.3546 ± 0.0014
298.15 K, m1 = 0.0295 | 0.36 ± 0.0014
298.15 K, m1 = 0.03022 | 0.3649 ± 0.0015
298.15 K, m1 = 0.0314 | 0.3728 ± 0.0015
298.15 K, m1 = 0.03255 | 0.382 ± 0.0015
298.15 K, m1 = 0.03367 | 0.3883 ± 0.0016
298.15 K, m1 = 0.03477 | 0.3965 ± 0.0016
298.15 K, m1 = 0.03689 | 0.4084 ± 0.0016
298.15 K, m1 = 0.03892 | 0.4221 ± 0.0017
298.15 K, m1 = 0.04086 | 0.4336 ± 0.0018
298.15 K, m1 = 0.04272 | 0.4435 ± 0.0018
298.15 K, m1 = 0.0445 | 0.4525 ± 0.0018
298.15 K, m1 = 0.04621 | 0.4635 ± 0.0019
298.15 K, m1 = 0.04785 | 0.4712 ± 0.0019
298.15 K, m1 = 0.04943 | 0.4799 ± 0.0019
298.15 K, m1 = 0.05094 | 0.489 ± 0.002
298.15 K, m1 = 0.0524 | 0.4951 ± 0.002
298.15 K, m1 = 0.05381 | 0.5029 ± 0.002
298.15 K, m1 = 0.05517 | 0.5103 ± 0.0021
298.15 K, m1 = 0.05648 | 0.5162 ± 0.0021
298.15 K, m1 = 0.05774 | 0.5226 ± 0.0021
303.15 K, m1 = 0.00388 | 0.06075 ± 0.00048
303.15 K, m1 = 0.00752 | 0.1306 ± 0.00064
303.15 K, m1 = 0.01257 | 0.2181 ± 0.00094
303.15 K, m1 = 0.01415 | 0.2351 ± 0.00098
303.15 K, m1 = 0.01508 | 0.2505 ± 0.0011
303.15 K, m1 = 0.01599 | 0.2653 ± 0.0011
303.15 K, m1 = 0.01688 | 0.2779 ± 0.0011
303.15 K, m1 = 0.01776 | 0.2879 ± 0.0012
303.15 K, m1 = 0.01863 | 0.2986 ± 0.0012
303.15 K, m1 = 0.01948 | 0.3128 ± 0.0013
303.15 K, m1 = 0.02031 | 0.321 ± 0.0013
303.15 K, m1 = 0.02194 | 0.3372 ± 0.0014
303.15 K, m1 = 0.02274 | 0.3504 ± 0.0014
303.15 K, m1 = 0.02352 | 0.3547 ± 0.0014
303.15 K, m1 = 0.02429 | 0.3646 ± 0.0015
303.15 K, m1 = 0.02505 | 0.3691 ± 0.0015
303.15 K, m1 = 0.02652 | 0.3816 ± 0.0015
303.15 K, m1 = 0.02725 | 0.3867 ± 0.0016
303.15 K, m1 = 0.02796 | 0.3925 ± 0.0016
303.15 K, m1 = 0.02866 | 0.398 ± 0.0016
303.15 K, m1 = 0.02935 | 0.4046 ± 0.0016
303.15 K, m1 = 0.03003 | 0.4126 ± 0.0017
303.15 K, m1 = 0.03114 | 0.4192 ± 0.0017
303.15 K, m1 = 0.03222 | 0.4277 ± 0.0017
303.15 K, m1 = 0.03327 | 0.4359 ± 0.0018
303.15 K, m1 = 0.0343 | 0.4466 ± 0.0018
303.15 K, m1 = 0.03531 | 0.4517 ± 0.0018
303.15 K, m1 = 0.03629 | 0.4591 ± 0.0019
303.15 K, m1 = 0.03725 | 0.4681 ± 0.0019
303.15 K, m1 = 0.03819 | 0.4739 ± 0.0019
303.15 K, m1 = 0.03911 | 0.4794 ± 0.0019
303.15 K, m1 = 0.04 | 0.4859 ± 0.002
303.15 K, m1 = 0.04174 | 0.4978 ± 0.002
303.15 K, m1 = 0.0434 | 0.5113 ± 0.0021
303.15 K, m1 = 0.04498 | 0.5211 ± 0.0021
303.15 K, m1 = 0.04651 | 0.5314 ± 0.0022
303.15 K, m1 = 0.04797 | 0.5413 ± 0.0022
303.15 K, m1 = 0.04938 | 0.5513 ± 0.0022
303.15 K, m1 = 0.05073 | 0.56 ± 0.0023
303.15 K, m1 = 0.05203 | 0.5681 ± 0.0023
303.15 K, m1 = 0.05328 | 0.5759 ± 0.0023
303.15 K, m1 = 0.05448 | 0.5835 ± 0.0024
308.15 K, m1 = 0.00358 | 0.06093 ± 0.00052
308.15 K, m1 = 0.00694 | 0.1384 ± 0.0007
308.15 K, m1 = 0.01011 | 0.2008 ± 0.0009
308.15 K, m1 = 0.01163 | 0.23 ± 0.00099
308.15 K, m1 = 0.01311 | 0.2551 ± 0.0011
308.15 K, m1 = 0.01539 | 0.2922 ± 0.0012
308.15 K, m1 = 0.01622 | 0.3053 ± 0.0013
308.15 K, m1 = 0.01704 | 0.3166 ± 0.0013
308.15 K, m1 = 0.01784 | 0.3262 ± 0.0013
308.15 K, m1 = 0.01863 | 0.3371 ± 0.0014

Source: the NIST ThermoML archive (doi:10.1021/je500804j)
